Data from patent US20240315985A1 (Dermavant Sciences GmbH, priority 2021, published 2024).

Key:
[1] = Preclinical repeat dosing study, systemic exposure; type: in vivo; conditions: CYP1A1/2 induced in skin or liver
Source text: The reason for the decrease in plasma concentrations over time is unknown. Without wishing to be bound by theory, as the skin heals, there may be less penetration of the drug through the stratum corneum and into the systemic circulation since the barrier is restored.

[2] = tested on: plaque psoriasis in adults; experiment: Physician Global Assessment (PGA), long-term open-label extension study (PSOARING 3) of tapinarof cream, 1%; type: in vivo, human
Source text: This extension study consisted of up to 40 weeks of treatment and a 4 week, safety follow up period.
The PGA was used to assess the primary efficacy endpoint in this study. The PGA is a clinical tool for assessing the current state/severity of a subject's psoriasis at a given time point. It is a static, 5 point, morphological assessment of overall disease severity, as determined by the Investigator, using the clinical characteristics of erythema, scaling, and plaque thickness/elevation as guidelines; higher PGA scores represent more severe disease (0=clear, 1=almost clear, 2=mild, 3=moderate, and 4=severe). The BSA affected was not considered in scoring of the PGA. Variations of the PGA are frequently used in clinical studies because it is a simple assessment, similar to those used in clinical practice. The PGA was performed first, prior to the % BSA, PASI, and LTS assessments.
Time to event parameters, such as the time from treatment success to subsequent worsening (PGA≥2) or duration of treatment episode, were summarized by the Kaplan Meier product limit method using OC.

[3] = tested on: plaque psoriasis in adults; experiment: Safety: adverse events (AEs, TEAEs, AESIs, SAEs), extension study; type: in vivo, human
Source text: Endpoints: Incidence, frequency, and nature of AEs, adverse events of special interest (AESIs), and serious adverse events (SAEs), Change over time in clinical laboratory tests and frequency of clinically significant abnormal test results, Change over time in vital signs and frequency of clinically significant abnormal results, Local Tolerability Scale (LTS) scores by severity summarized by visit.
Safety assessments included AEs, AESIs, SAEs, local (application site) tolerability, clinical laboratory tests, vital signs, physical examinations, and Investigator assessed LTS. Efficacy assessments included a 5 point static PGA (0 [clear], 1 [almost clear], 2 [mild], 3 [moderate], 4 [severe]), % BSA affected, the PASI, and subject reported DLQI.

psoriasis = experiment: 12-week phase 2b trial in psoriasis, maintenance after treatment cessation; type: in vivo, human
Source text: As mentioned, tapinarof is a novel therapeutic aryl hydrocarbon receptor modulating agent (TAMA) in clinical development for the topical treatment of psoriasis and atopic dermatitis. […] AhR modulates T cell responses both through intrinsic control of T cell subset differentiation and via controlling the function of antigen presenting cells. In addition, AhR signaling promotes the conversion of Th17 cells to type 1 regulatory T cells. Aberrant immune responses underpin the pathogenesis of both PsO and AD, and the wide expression of AhR in immune cells makes it an attractive target given the essential role of AhR in regulating inflammatory responses and skin homeostasis. […] These clinical data support the role of AhR in skin immune homeostasis. Given the multitude of AhR-dependent immunoregulatory mechanisms, AhR is an attractive target for novel immunotherapies with the potential to extend therapeutic efficacy following treatment discontinuation; this may provide a unique clinical benefit to patients.

[4] = Plasma concentrations, maximal use study with serial PK sampling; type: in vivo, human; conditions: between Days 1 and 29
Source text: This unique PK profile is characterized by the highest plasma concentrations being observed on the first day or week of the treatment period followed by a subsequent decline to undetectable or near undetectable levels in the plasma after multiple weeks of dosing.
(FIG. 2). This decline is further supported by serial PK data collected from previous clinical studies over 28 days of dosing and over 21 days of dosing.

Question: Which results are given for `CC(C)c1c(O)cc(/C=C/c2ccccc2)cc1O` [tapinarof, 3,5-Dihydroxy-4-isopropyl-trans-stilbene]?
Answer: Change in systemic exposures with repeat dosing compared to single doses ([1]; minipigs): no changes in systemic exposures; Change in systemic exposures with repeat dosing compared to single doses ([1]; rats): no changes in systemic exposures; Durability of Response, No. of Subjects ([2]; Vehicle→Tapinarof, Wk. 0): 22; Remittive effect off therapy ([2]; patients with complete disease clearance (PGA=0)): approximately 4 months; Study discontinuation due to AESI: Dermatitis contact, Patients, % ([3]; Overall (n = 763)): (1.4) %; Study discontinuation due to AESI: Folliculitis, Patients, % ([3]; Overall (n = 763)): (1.2) %; Study discontinuation due to TEAEs, Patients, % ([3]; Overall (n = 763)): (5.4) %; Treatment-emergent AESI: Dermatitis contact, Patients, % ([3]; Overall (n = 763)): (5.9) %; Treatment-emergent AESI: Folliculitis, Patients, % ([3]; Overall (n = 763)): (24.0) %; Treatment-emergent AESI: Headache, Patients, % ([3]; Overall (n = 763)): (2.0) %; Study discontinuation due to AESI: Dermatitis contact, Patients, % ([3]; Tapinarof→Tapinarof (n = 508)): (1.4) %; Study discontinuation due to AESI: Folliculitis, Patients, % ([3]; Tapinarof→Tapinarof (n = 508)): (1.2) %; Study discontinuation due to TEAEs, Patients, % ([3]; Tapinarof→Tapinarof (n = 508)): (5.1) %; Treatment-emergent AESI: Dermatitis contact, Patients, % ([3]; Tapinarof→Tapinarof (n = 508)): (4.7) %; Treatment-emergent AESI: Folliculitis, Patients, % ([3]; Tapinarof→Tapinarof (n = 508)): (24.4) %; Treatment-emergent AESI: Headache, Patients, % ([3]; Tapinarof→Tapinarof (n = 508)): (2.0) %; Study discontinuation due to AESI: Dermatitis contact, Patients, % ([3]; Vehicle→Tapinarof (n = 255)): (1.6) %; Study discontinuation due to AESI: Folliculitis, Patients, % ([3]; Vehicle→Tapinarof (n = 255)): (1.2) %; Study discontinuation due to TEAEs, Patients, % ([3]; Vehicle→Tapinarof (n = 255)): (5.9) %; Treatment-emergent AESI: Dermatitis contact, Patients, % ([3]; Vehicle→Tapinarof (n = 255)): (8.2) %; Treatment-emergent AESI: Folliculitis, Patients, % ([3]; Vehicle→Tapinarof (n = 255)): (23.1) %; Treatment-emergent AESI: Headache, Patients, % ([3]; Vehicle→Tapinarof (n = 255)): (2.0) %; Time efficacy was maintained after treatment cessation (psoriasis): four; Decline in plasma concentrations of tapinarof [4]: 10 fold
